# Values quoted from earlier work in US9226944B2, “Herbal preparation for sleep apnea relief” (priority 2008, dated 2016).
# Conditions: combined with the plant vs freed from the other constituents; heat accelerates decomposition
compound,measurement,value
"CN1C(CC(=O)c2ccccc2)CCCC1CC(O)c1ccccc1 (stereo not shown) [Lobeline, 2-[6-(2-hydroxy-2-phenyl-ethyl)-1-methyl-2-piperidyl]-1-phenyl-ethanone]",stability of lobeline,decomposes when freed from contact with the other constituents of the plant
